How the values were obtained:
Format in all cases: functional
Bombyx mori [1] = test: Anti-juvenile hormone activity in Bombyx mori Shunrei x Shougetsu 24 hr old third-instar larvae exposed to compound through topical application to dorsal abdomen assessed as precocious metamorphosis at 40 ug/larva relative to untreated control
Bombyx mori [2] = test: Anti-juvenile hormone activity in Bombyx mori Shunrei x Shougetsu 24 hr old fifth-instar larvae assessed as time required for onset of cocoon spinning starting from ecdysis day at 1 ug/1 ul applied topically (reference value: 8 +/- 1.2 days)
Bombyx mori [3] = test: Anti-juvenile hormone activity in Bombyx mori Shunrei x Shougetsu 24 hr old third-instar larvae exposed to compound through topical application to dorsal abdomen assessed as precocious metamorphosis at 10 ug/larva relative to untreated control
Bombyx mori [4] = test: Anti-juvenile hormone activity in Bombyx mori Shunrei x Shougetsu 24 hr old third-instar larvae exposed to compound through topical application to dorsal abdomen assessed as precocious metamorphosis at 1 ug/larva relative to untreated control
Bombyx mori [5] = test: (§1) Anti-juvenile hormone activity in Bombyx mori Shunrei x Shougetsu 24 hr old third-instar larvae exposed to compound through topical application to dorsal abdomen assessed as precocious metamorphosis at 0.1 ug/larva relative to untreated control
Bombyx mori [6] = test: Anti-juvenile hormone activity in Bombyx mori Shunrei x Shougetsu first 48 hr old newly molted third-instar larvae assessed as precocious metamorphosis at 50 ppm mixed with artificial diet untreated control
Bombyx mori [7] = test: Anti-juvenile hormone activity in Bombyx mori Shunrei x Shougetsu first 48 hr old newly molted third-instar larvae assessed as precocious metamorphosis at 200 ppm mixed with artificial diet untreated control
Bombyx mori [8] = test: Anti-juvenile hormone activity in Bombyx mori Shunrei x Shougetsu 72 hr old second-instar larvae assessed as precocious metamorphosis at 0.1 ug/larva relative to untreated control
Bombyx mori [9] = test: Anti-juvenile hormone activity in Bombyx mori Shunrei x Shougetsu newly molted fourth-instar larvae assessed as precocious metamorphosis at 10 ug/larva relative to untreated control
Bombyx mori [10] = test: Anti-juvenile hormone activity in Bombyx mori Shunrei x Shougetsu 72 hr old second-instar larvae assessed as precocious metamorphosis at 10 ug/larva relative to untreated control
Bombyx mori [11] = test: Anti-juvenile hormone activity in Bombyx mori Shunrei x Shougetsu 72 hr old second-instar larvae assessed as precocious metamorphosis at 1 ug/larva relative to untreated control
Bombyx mori [12] = test: Anti-juvenile hormone activity in Bombyx mori Shunrei x Shougetsu newly molted fourth-instar larvae assessed as precocious metamorphosis at 1 ug/larva relative to untreated control
Bombyx mori [13] = test: as §1, with “ug/larva in presence of 20 ppm 20-hydroxyecdysone applied through diet for first 48 hr to 24 hr old newly molted fourth-instar larvae” for “ug/larva”
Bombyx mori [14] = test: (§2) Anti-juvenile hormone activity in Bombyx mori Shunrei x Shougetsu 24 hr old third-instar larvae exposed to compound through topical application to dorsal abdomen assessed as precocious metamorphosis at 0.1 ug/larva in presence of 10 ug/larva methoprene applied to 24 hr old newly molted fourth-instar larvae relative to untreated control
Bombyx mori [15] = test: as §1, with “ug/larva in presence of 20 ppm 20-hydroxyecdysone applied through diet for first 48 hr to 24 hr old third-instar larvae” for “ug/larva”
Bombyx mori [16] = test: as §2, with “third-instar” for “newly molted fourth-instar”

| Structure (SMILES) | Activity (Bombyx mori [1]) [%] | Time (Bombyx mori [2]) [days] | Activity (Bombyx mori [3]) [%] | Activity (Bombyx mori [4]) [%] | Activity (Bombyx mori [5]) [%] | further results |
| --- | --- | --- | --- | --- | --- | --- |
| CCOC(=O)c1ccc(OCC(CC)OC(=O)C(C)(C)C)cc1 (stereo not given) | 0 | 12.7 | 0 | 10 | 0 | – |
| CCCCC(COc1ccc(C(=O)O)cc1)Cc1ccccc1 (stereo not given) | – | – | – | – | – | Activity (Bombyx mori [6]): 0%; Activity (Bombyx mori [7]): 0% |
| CCCC[C@H](COc1ccc(C(=O)OCC)cc1)Cc1ccccc1 | 15 | 14.3 | 17 | 96 | 52 | Activity (Bombyx mori [8]): 20%; Activity (Bombyx mori [9]): 0%; Activity (Bombyx mori [10]): 95%; Activity (Bombyx mori [11]): 89%; Activity (Bombyx mori [12]): 10% |
| CCCC[C@@H](COc1ccc(C(=O)OCC)cc1)Cc1ccccc1 | 67 | 8.4 | 42 | 8 | 0 | Activity (Bombyx mori [8]): 0%; Activity (Bombyx mori [9]): 0%; Activity (Bombyx mori [10]): 0%; Activity (Bombyx mori [11]): 0%; Activity (Bombyx mori [12]): 5% |
| CCCCC[C@H](COc1ccc(C(=O)OCC)cc1)Cc1ccccc1 | 17 | – | 39 | 97 | 65 | – |
| CCCCC[C@@H](COc1ccc(C(=O)OCC)cc1)Cc1ccccc1 | 76 | – | 83 | 54 | 0 | – |
| CCOC(=O)c1ccc(OCC(Cc2ccccc2)Cc2ccccc2)cc1 | 95 | – | 65 | 35 | 0 | – |
| CCCCC(COc1ccc(C(=O)OCC)cc1)Cc1ccccc1 (racemic) | 12 | 10.1 | 34 | 90 | 21 | Activity (Bombyx mori [13]): 100%; Activity (Bombyx mori [14]): 0%; Activity (Bombyx mori [8]): 0%; Activity (Bombyx mori [15]): 95%; Activity (Bombyx mori [9]): 10%; Activity (Bombyx mori [6]): 58%; Activity (Bombyx mori [10]): 85%; Activity (Bombyx mori [7]): 5%; Activity (Bombyx mori [11]): 45%; Activity (Bombyx mori [12]): 5%; Activity (Bombyx mori [16]): 0% |
| CCOC(=O)c1ccc(OCC(CC)Cc2ccccc2)cc1 (racemic) | – | – | 5 | 0 | 0 | – |
| CCCC(COc1ccc(C(=O)OCC)cc1)Cc1ccccc1 (racemic) | 87 | – | 37 | 22 | 0 | – |
| CCOC(=O)c1ccc(OCC(Cc2ccccc2)CC(C)C)cc1 (racemic) | 46 | – | 22 | 0 | 0 | – |
| CCCCCC(COc1ccc(C(=O)OCC)cc1)Cc1ccccc1 (racemic) | 20 | – | 48 | 94 | 37 | – |
| CCCCCCC(COc1ccc(C(=O)OCC)cc1)Cc1ccccc1 (racemic) | 62 | – | 42 | 20 | 0 | – |
| COC(C)(C)CCC[C@H](C)C/C=C/C(C)=C/C(=O)OC(C)C [METHOPRENE] | – | 10.9 | – | – | – | – |

Reference: ChEMBL document CHEMBL3045873, “Synthesis and anti-juvenile hormone activity of ethyl 4-(2-benzylalkyloxy)benzoates and their enantiomers” (2007)
